Experimental data from patent US20230407373A1 (priority 2020, published 2023).

Tests used:
gRNA of HCoV-OC43 = type: binding
HCoV-OC43 gRNA and sgRNA = type: binding

For SLTM: host protein, UniProt Q9NWH9, the “target (spectral count)” value (gRNA of HCoV-OC43; type g_36_m, HCoV-OC43-infected HCT-8 cells, 36 hpi, Probe I) was 10, the “background (spectral count)” value (gRNA of HCoV-OC43; type g_36_m, uninfected-probe control, 36 hpi, Probe I) was 1 and the “target (spectral count, OC43 Probe I RNP capture)” value (gRNA of HCoV-OC43; type n_48_v: 48 hours post-infection, infected cells, OC43 Probe I, unweighted spectral count) was 11. For the same substance, the “background (spectral count, no-probe control)” value (gRNA of HCoV-OC43; type n_48_v: 48 hours post-infection, no-probe control on infected cells) was 1, the “target (unweighted spectral count, OC43 Probe II capture)” value (HCoV-OC43 gRNA and sgRNA; 36 hpi, type n_36_v, tested against no-probe control, FDR<10%) was 6 and the “target (unweighted spectral count, OC43 Probe II)” value (HCoV-OC43 gRNA and sgRNA; type n_48_v, 48 hpi, OC43 Probe II capture on infected cells) was 8. For the same substance, the “background (unweighted spectral count, no-probe control)” value (HCoV-OC43 gRNA and sgRNA; type n_48_v, 48 hpi, no-probe control on infected cells) was 1.
